The series can be described thus: Oral absorption test in rats. The settings on record: male SD rats, oral 10 mg value/kg (as active substance). The series is classed as in vivo. The protocol:
A compound of Example 1 of the present invention and a pivaloyloxymethyl ester derivative of the compound 32, carbapenem in which para-hydroxyphenyl group is directly substituted, which is described in the Journal of Medicinal Chemistry, Vol. 30, p 871-880, 1987 (which is one of the prior arts which are most relevant to the present invention) were orally administered to mice or rats. The concentration of the active substance in serum was measured by bioassay, and absolute bioavailability was compared respectively.
The test sample was prepared in the same manner as in the oral absorption test in mice. […] To thus treated rats were orally administered the test sample (10 mg value/kg (calculated into active substance)). […] The concentration of the active substance in the serum was measured by bioassay in the same manner as in the oral absorption in mice. […]
In regard to the test sample, the value of the concentration of the active substance in serum was plotted to the hours after administration, and calculated the concentration of the active substance-area under hours curve (AUC) or calculated reducing area under hours curve (AUC) from the concentration of the active substance. On the other hand, AUC when the active substance was intravenously administered was calculated as mentioned above. […]
The absolute availability (BA) was calculated based on the above formula.

`C[C@@H](O)[C@H]1C(=O)N2C(C(=O)OCOC(=O)C(C)(C)C)=C(c3ccc(O)cc3)C[C@H]12` [comparative compound]: the oral absorbability entry is on record as “did not show oral absorbability”.
